Measured values: EP3539977B1, “ENZYMES WITH CHLOROGENIC ACID ESTERASE ACTIVITY AND FERULOYL ESTERASE ACTIVITY” (SternEnzym GmbH & Co. KG, priority 2014, dated 2016)
Several values for one entry are separate records, joined by “and”; a condition that tells them apart may be missing. Equal values may be shown once.

What was measured:
[1] = molecular target: T1, UmChlE (Mycosarcoma maydis, UniProt A0A060S684, P492L); type: biochemical, Ustilago maydis; settings: buffer (Tris pH 7.5) / organic solvent 1:1 (v/v), 0.7 mM methyl ferulate, 1 h, 37 °C, 900 rpm; without solvent = 100 %; standard error in parentheses; ND = activity not detectable
T1 construct: purification of the chlorogenic acid esterase UmChlE from culture supernatant of U. maydis was accomplished by three complementary separation steps; made in house; host or cells: Ustilago maydis itself (native producer), culture supernatant; Q Sepharose FF, preparative IEF, polyamide column
Description: Chlorogenic acid esterase activity was determined at 37 °C in 50 mM Tris buffer at pH 7.5 using chlorogenic acid and methyl ferulate as standard substrates, unless otherwise stated. The release of the corresponding free acids was analyzed with HPLC-UV. If appropriate, the hydrolysis of other benzoic and cinnamic acid ester derivatives as well as feruloylated saccharides was measured with the same method. After incubation for one hour the reaction was terminated by doubling the reacting volume with acetonitrile. Samples were centrifuged (15 min, 15.000 × g) before injection to the HPLC (Chromolith Performance RP-18e reverse-phase column, 100 × 4.6 mm, Merck, Darmstadt, Germany). […] Substance elution was detected at 232 nm (benzoic and 3-hydroxybenzoic acid), 254 nm (4-hydroxybenzoic and vanillic acid), 275 nm (cinnamic and gallic acid), 306 nm (p-coumaric acid) and 323 nm (ferulic, caffeic, chlorogenic and sinapic acid) using a Shimadzu UV-Vis detector (SPD-10A VP, Shimadzu Deutschland GmbH, Duisburg, Germany). One unit of enzyme activity was defined as the amount of enzyme releasing one µmοl of free acid per minute under the specified conditions. All measurements were performed at least twice. […]

[2] = molecular target: T1, UmChlE; type: biochemical, Ustilago maydis; settings: 1 mM (or 1.95 mM) substrate, 1 h, 37 °C, 50 mM Tris pH 7.5; ND = activity not detectable
Description: (§1) Chlorogenic acid esterase activity was determined at 37 °C in 50 mM Tris buffer at pH 7.5 using chlorogenic acid and methyl ferulate as standard substrates, unless otherwise stated. The release of the corresponding free acids was analyzed with HPLC-UV. If appropriate, the hydrolysis of other benzoic and cinnamic acid ester derivatives as well as feruloylated saccharides was measured with the same method. After incubation for one hour the reaction was terminated by doubling the reacting volume with acetonitrile. Samples were centrifuged (15 min, 15.000 × g) before injection to the HPLC (Chromolith Performance RP-18e reverse-phase column, 100 × 4.6 mm, Merck, Darmstadt, Germany). […] Substance elution was detected at 232 nm (benzoic and 3-hydroxybenzoic acid), 254 nm (4-hydroxybenzoic and vanillic acid), 275 nm (cinnamic and gallic acid), 306 nm (p-coumaric acid) and 323 nm (ferulic, caffeic, chlorogenic and sinapic acid) using a Shimadzu UV-Vis detector (SPD-10A VP, Shimadzu Deutschland GmbH, Duisburg, Germany). One unit of enzyme activity was defined as the amount of enzyme releasing one µmοl of free acid per minute under the specified conditions. All measurements were performed at least twice.
Substrate specificity of the UmChlE was determined towards different cinnamate and benzoate esters as well as natural substrates, such as F-A, F-AX and F-AXG, with activity assays as described above. Three mM stock solutions of all substrates were prepared in water.
Purified UmChlE was incubated with 1 mM, or, in a further experiment, 1.95 mM of different substrates for 1 h (at 37 °C, 50 mM Tris buffer pH 7.5). Relative enzyme activities were calculated based on the most preferred substance of the UmChIE: chlorogenic acid which was set to 100 %. Numbers in parentheses are the estimates of the standard error.

[3] = molecular target: T2, RsChlE (Rhizoctonia solani, UniProt A0A1D0BQV8); test: Substrate specificity of purified RsChlE; type: biochemical; settings: 1 mM (or 1.95 mM) substrate, 1 h, 30 °C, 50 mM Bis-Tris pH 6.0
T2 sequence (A0A1D0BQV8 39-563): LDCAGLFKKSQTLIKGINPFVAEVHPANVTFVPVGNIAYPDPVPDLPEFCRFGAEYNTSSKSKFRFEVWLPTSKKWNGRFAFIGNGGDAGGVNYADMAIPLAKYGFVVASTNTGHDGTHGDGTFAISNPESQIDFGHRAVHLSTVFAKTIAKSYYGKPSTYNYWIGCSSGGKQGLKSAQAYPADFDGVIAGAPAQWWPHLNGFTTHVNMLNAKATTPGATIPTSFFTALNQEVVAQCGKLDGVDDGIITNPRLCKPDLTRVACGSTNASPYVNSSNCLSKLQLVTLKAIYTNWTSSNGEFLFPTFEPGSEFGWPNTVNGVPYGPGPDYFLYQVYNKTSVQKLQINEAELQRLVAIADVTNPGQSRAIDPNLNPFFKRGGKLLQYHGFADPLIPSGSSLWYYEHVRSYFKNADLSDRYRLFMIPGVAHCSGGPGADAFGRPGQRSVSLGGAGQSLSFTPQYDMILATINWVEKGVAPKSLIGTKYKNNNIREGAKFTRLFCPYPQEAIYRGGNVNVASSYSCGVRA
Description: as §1
(§2) After purification of the recombinant RsChlE from the culture supernatant of Pichia pastoris with Ni-NTA, the enzyme was biochemically characterized. The experiments were performed like for UmChlE. pH and temperature optimums were analyzed. […] Table 4: Substrate specificity of purified RsChIE.
Purified RsChlE was incubated with 1 mM, or in an alternative experiment, 1.95 mM of different substrates for 1 h (at 30 °C, 50 mM Bis-Tris buffer pH 6.0). […] Numbers in parentheses are the estimates of the standard error.

[4] = test system: FAE of Penicillium expansum; settings: literature (42); cited from earlier work
[5] = molecular target: T1, UmChlE; test: Kinetic parameters of UmChlE from initial hydrolysis rates; type: biochemical, Ustilago maydis; settings: 0.005 - 1 mM substrate, 60 min, 37 °C, pH 7.5
Description: (§3) Km and vmax values were calculated with non-linear regression using SigmaPlot 10.0 (Systat Software Inc., Chicago, USA). Blanks were carried out for all assays using water instead of enzyme. For calculation of kcat the molecular mass was determined using denaturing SDS-PAGE.
Kinetic properties were determined from initial hydrolysis rates for the most preferred substrates chlorogenic acid, MFA and MpCA. […] Consequently, the catalytic efficiency (kca/Km), a good indicator for enzyme efficiency and specificity, was better for chlorogenic acid than for the two synthetic substrates.

[6] = molecular target: T3, chlorogenic acid hydrolases from A. niger (Aspergillus niger, UniProt A7YN26); settings: literature (13, 14); cited from earlier work
T3 sequence (A7YN26 19-512): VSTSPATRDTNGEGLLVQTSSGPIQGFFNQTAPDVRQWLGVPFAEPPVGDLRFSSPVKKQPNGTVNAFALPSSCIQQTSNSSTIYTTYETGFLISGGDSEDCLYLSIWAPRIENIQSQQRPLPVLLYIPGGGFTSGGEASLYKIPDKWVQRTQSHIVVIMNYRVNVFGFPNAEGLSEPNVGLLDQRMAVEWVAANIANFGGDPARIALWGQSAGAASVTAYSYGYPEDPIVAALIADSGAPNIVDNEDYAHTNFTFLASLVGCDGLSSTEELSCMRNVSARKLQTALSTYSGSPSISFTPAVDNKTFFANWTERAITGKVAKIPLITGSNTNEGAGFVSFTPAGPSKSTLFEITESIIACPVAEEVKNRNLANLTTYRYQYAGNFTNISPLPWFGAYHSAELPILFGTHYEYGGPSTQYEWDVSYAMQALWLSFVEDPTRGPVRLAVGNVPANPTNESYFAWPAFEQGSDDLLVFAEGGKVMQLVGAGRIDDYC

[7] = test system: second published chlorogenic acid hydrolases from A. niger; settings: literature (11); cited from earlier work
[8] = molecular target: A. niger FAEB (Aspergillus niger, UniProt Q8WZI8); settings: literature (34); cited from earlier work
[9] = molecular target: T4, type B feruloyl esterase from N. crassa (Neurospora crassa, UniProt Q9HGR3); settings: literature (35); cited from earlier work
T4 sequence (Q9HGR3 19-292): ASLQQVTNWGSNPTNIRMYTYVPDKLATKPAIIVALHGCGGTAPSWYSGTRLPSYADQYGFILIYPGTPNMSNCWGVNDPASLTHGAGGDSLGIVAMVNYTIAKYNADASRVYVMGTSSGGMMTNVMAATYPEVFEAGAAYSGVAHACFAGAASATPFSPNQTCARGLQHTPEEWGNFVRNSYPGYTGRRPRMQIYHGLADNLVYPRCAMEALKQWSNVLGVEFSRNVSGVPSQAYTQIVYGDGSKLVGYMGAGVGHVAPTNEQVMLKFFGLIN

[10] = molecular target: T5, AoFaeB from A. oryzae (Aspergillus oryzae, UniProt Q2UP89); settings: literature (19); cited from earlier work
T5 sequence (Q2UP89 19-540): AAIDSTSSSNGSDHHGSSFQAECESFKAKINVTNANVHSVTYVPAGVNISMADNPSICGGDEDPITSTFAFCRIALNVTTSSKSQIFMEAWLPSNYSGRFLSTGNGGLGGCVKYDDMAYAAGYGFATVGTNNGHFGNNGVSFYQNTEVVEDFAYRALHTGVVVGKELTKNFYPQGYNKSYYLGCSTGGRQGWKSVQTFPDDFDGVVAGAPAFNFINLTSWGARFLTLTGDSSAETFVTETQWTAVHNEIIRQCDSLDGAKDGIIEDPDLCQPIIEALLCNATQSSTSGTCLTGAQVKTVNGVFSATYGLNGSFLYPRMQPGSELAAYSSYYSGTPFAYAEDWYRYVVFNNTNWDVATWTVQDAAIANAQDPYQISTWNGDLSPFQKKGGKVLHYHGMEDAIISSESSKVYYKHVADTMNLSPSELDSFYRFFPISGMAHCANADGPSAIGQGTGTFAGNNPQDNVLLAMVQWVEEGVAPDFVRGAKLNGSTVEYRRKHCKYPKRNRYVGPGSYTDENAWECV

[11] = test system: type B feruloyl esterases; settings: literature; cited from earlier work
[12] = substrate: COC(=O)/C=C/c1ccc(O)cc1; test: purified protein, by the assay type
[13] = substrate: COC(=O)/C=C/c1ccc(O)c(O)c1; test: Kinetic analysis of RsChlE; type: biochemical, Rhizoctonia solani
Description: as §3, §2
(§4) In the following, the kinetic constants were determined to decide if the enzyme has mainly chlorogenic acid esterase or feruloyl esterase activity. Table 5: kinetic analysis of RsChlE

[14] = substrate: COc1cc(/C=C/C(=O)OC[C@@H]2OC(O)[C@H](O[C@@H]3OC[C@@H](O)[C@H](O)[C@H]3O)[C@H]2O)ccc1O; test: Kinetic analysis of RsChlE; type: biochemical, Rhizoctonia solani
Description: as §3, §2, §4

[15] = substrate: O=C(/C=C/c1ccc(O)c(O)c1)O[C@@H]1C[C@](O)(C(=O)O)C[C@@H](O)[C@H]1O; test: Kinetic analysis of RsChlE; type: biochemical, Rhizoctonia solani
Description: as §3, §2, §4

T1 sequence (A0A060S684 22-585, stated change not applied): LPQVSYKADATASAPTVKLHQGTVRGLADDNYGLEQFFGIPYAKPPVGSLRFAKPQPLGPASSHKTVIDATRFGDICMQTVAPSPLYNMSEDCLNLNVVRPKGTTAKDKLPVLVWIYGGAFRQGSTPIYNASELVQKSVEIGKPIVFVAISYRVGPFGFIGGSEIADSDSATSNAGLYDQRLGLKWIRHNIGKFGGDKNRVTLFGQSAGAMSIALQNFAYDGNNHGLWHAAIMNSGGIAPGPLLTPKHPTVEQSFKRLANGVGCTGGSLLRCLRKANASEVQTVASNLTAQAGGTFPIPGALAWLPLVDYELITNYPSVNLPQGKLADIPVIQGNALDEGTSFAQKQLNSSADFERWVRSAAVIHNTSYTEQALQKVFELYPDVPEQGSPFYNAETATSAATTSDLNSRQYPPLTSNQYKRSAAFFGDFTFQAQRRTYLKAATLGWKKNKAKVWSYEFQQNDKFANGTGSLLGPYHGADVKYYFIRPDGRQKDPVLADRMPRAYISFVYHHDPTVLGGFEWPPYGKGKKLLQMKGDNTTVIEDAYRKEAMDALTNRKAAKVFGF
Chain of A. niger FAEB (Q8WZI8 18-521): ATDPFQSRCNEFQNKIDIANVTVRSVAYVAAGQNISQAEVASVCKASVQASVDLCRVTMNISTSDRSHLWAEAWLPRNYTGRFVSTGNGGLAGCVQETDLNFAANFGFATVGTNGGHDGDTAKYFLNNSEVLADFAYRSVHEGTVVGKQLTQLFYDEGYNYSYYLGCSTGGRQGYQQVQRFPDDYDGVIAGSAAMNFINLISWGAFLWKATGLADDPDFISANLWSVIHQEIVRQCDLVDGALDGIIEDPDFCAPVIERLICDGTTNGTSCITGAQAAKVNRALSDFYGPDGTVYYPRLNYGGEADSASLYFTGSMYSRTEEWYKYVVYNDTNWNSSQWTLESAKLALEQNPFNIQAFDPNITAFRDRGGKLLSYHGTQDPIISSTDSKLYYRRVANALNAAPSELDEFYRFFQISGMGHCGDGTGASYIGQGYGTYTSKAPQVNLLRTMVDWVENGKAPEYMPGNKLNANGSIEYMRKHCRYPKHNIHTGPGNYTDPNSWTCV

Molecule: CN(C)C=O [DMF]
- Relative esterase activity [1]: 1 (0.76) %

Molecule: COc1cc(/C=C/C(=O)OC[C@@H]2OC(O)[C@H](O[C@@H]3OC[C@@H](O)[C@H](O)[C@H]3O)[C@H]2O)ccc1O (stereo partly drawn) [F-AX, β-D-xylopyranosyl-(1→2)-5-O-trans-feruloyl-L-arabinofuranose]
- Specific esterase activity [2]: 1.6 U mg^-1 and 1.63 U mg^-1
- Specific activity [3]: 4.97 U/mg
- specific activities [4]: 5.3 U mg^-1

Molecule: O=C(/C=C/c1ccc(O)c(O)c1)O[C@@H]1C[C@](O)(C(=O)O)C[C@@H](O)[C@H]1O [chlorogenic acid]
- Specific esterase activity [2]: 2.8 U mg^-1 and 2.76 U mg^-1
- kcat [5]: 0.51 s⁻¹
- Specific activity [3]: 5.15 U/mg
- Km [6]: 6.5 to 10 µM
- Km [7]: 700 µM
- Km [8]: 245 µM
- Km [9]: 180 µM
- Km [10]: 630 µM

Molecule: COC(=O)/C=C/c1ccc(O)c(OC)c1 [methyl ferulate]
- Specific esterase activity [2]: 1.27 U mg^-1
- kcat [5]: 0.38 s⁻¹
- Specific activity [3]: 3.19 U/mg
- specific activities [4]: 14.4 U mg^-1

Molecule: COC(=O)/C=C/c1ccc(O)cc1 [methyl p-coumarate]
- Specific esterase activity [2]: 1.43 U mg^-1
- kcat [5]: 0.49 s⁻¹
- Specific activity [3]: 6.19 U/mg
- Km [11]: 20 µM

B1: RsChlE (Rhizoctonia solani) (protein)
chain: MGCDRPRQALHSLQEFTVMFSKWLPISAILLYGASAKALDCAGLFKKSQTLIKGINPFVAEVHPANVTFVPVGNIAYPDPVPDLPEFCRFGAEYNTSSKSKFRFEVWLPTSKKWNGRFAFIGNGGDAGGVNYADMAIPLAKYGFVVASTNTGHDGTHGDGTFAISNPESQIDFGHRAVHLSTVFAKTIAKSYYGKPSTYNYWIGCSSGGKQGLKSAQAYPADFDGVIAGAPAQWWPHLNGFTTHVNMLNAKATTPGATIPTSFFTALNQEVVAQCGKLDGVDDGIITNPRLCKPDLTRVACGSTNASPYVNSSNCLSKLQLVTLKAIYTNWTSSNGEFLFPTFEPGSEFGWPNTVNGVPYGPGPDYFLYQVYNKTSVQKLQINEAELQRLVAIADVTNPGQSRAIDPNLNPFFKRGGKLLQYHGFADPLIPSGSSLWYYEHVRSYFKNADLSDRYRLFMIPGVAHCSGGPGADAFGRPGQRSVSLGGAGQSLSFTPQYDMILATINWVEKGVAPKSLIGTKYKNNNIREGAKFTRLFCPYPQEAIYRGGNVNVASSYSCGVRA
- Km [12]: 35,8 µM
- Vmax [12]: 26,5 U/mg
- kcat [12]: 33,13 s^-1
- kcat/Km [12]: 925,28 mM * s^-1
- Km [13]: 28,5 µM
- Vmax [13]: 16 U/mg
- kcat [13]: 20,00 s^-1
- Km [14]: 38,4 µM
- Vmax [14]: 23,3 U/mg
- kcat [14]: 29,13 s^-1
- Km [15]: 18,3 µM
- Vmax [15]: 23,4 U/mg
- kcat [15]: 29,25 s^-1
